Measured values published in US12233070B2, “Methods for treating benzodiazepine misuse/use disorder” (University of M[…] Center, priority 2020, dated 2025).
“Also recorded” adds a separate entry of the source.

Key:
rhesus monkeys [1] = assay: i.v. self-administration under progressive-ratio (PR) schedule; type: in vivo, rhesus monkey; settings: dose at which self-administration was highest; n=4 monkeys; FIG. 5
Excerpt: The abuse potential of novel compounds can be determined by use of i.v. self-administration procedures, in which a compound is available to a subject previously trained to press a lever to obtain a known drug of abuse. Our standard procedure is to use a progressive-ratio (PR) schedule, in which an increasing number of responses are required to obtain an injection. The last response requirement completed is referred to as a “break point” (BP) and represents the maximum amount of “work” a subject will perform to obtain the drug or compound.
In the present example, eight rhesus monkeys (4 females, 4 males) were trained to respond under a schedule of i.v. midazolam (a conventional benzodiazepine) injection at 0.03 mg/kg/injection. Once self-administration had been acquired (>20 injections/daily 2-hour sessions), monkeys were trained under the PR schedule as described by Shinday et al. (2013). Daily experimental sessions consisted of five components, each made up of four trials (i.e., 20 trials total). […]
In order to directly compare lorazepam and TPA023B self-administration, we here analyzed BP values at the doses that maintained the highest level of mean injections/session and compared these BP values with those obtained after vehicle tests.

rhesus monkeys [2] = assay: Midazolam self-administration (PR) after TPA023B pretreatment; type: in vivo, rhesus monkey
Experimental: To test this, we have trained monkeys to self-administer the short-acting conventional benzodiazepine midazolam (0.056 mg/kg/injection, i.v.) in the PR procedure, as described above. During test sessions, we initially kept the training dose of midazolam constant, and administered i.v. pretreatments of TPA023B (0.003, 0.01, 0.03, 0.1, 0.3 mg/kg, of vehicle) immediately prior to the beginning of the session. A key consideration for any pharmacotherapy, as well as interpretation of blockade of reinforcing effects generally, is the extent to which the blockade is specific to the drug target and not a generalized suppression of behavior, e.g., due to sedative-motor effects inhibiting the ability of the monkey to press the lever. Another possible confounding factor that would potentially result in blockade of drug taking is general sickness or perceptual alterations. In particular, appetite suppression would represent an undesirable side effect in a benzodiazepine addiction pharmacotherapy.
To further evaluate the extent to which attenuation of responding was due to pharmacological antagonism and to evaluate an exemplary range of effective doses, we evaluated single doses of TPA023B administered prior to sessions in which differing doses of midazolam were tested.

Sprague-Dawley rats = assay: Pulmonary ventilation, whole body plethysmography; type: in vivo, rat; settings: over the doses tested, i.p.; N=8 rats
Experimental: We first assessed the effects of TPA023B, in comparison with alprazolam, using whole body plethysmography (WBP; DSI systems). For these studies, adult male Sprague-Dawley rats (n=8) were habituated to the chambers for 30 min. The chamber was then filled with 21% oxygen, sealed, and pressure fluctuation measured for 1 min. Next, the chamber was opened and the rats were injected with alprazolam or TPA023B, i.p., and placed into the sealed chamber for a 15 min pretreatment time. The chamber was again filled with 21% oxygen, and for 1 min, fluctuating pressure amounts were recorded to obtain tidal volume (lung capacity), breaths/minute, and minute volume (lung capacity per unit time).

[3] = biological target: α1 subunit-containing GABAA receptors (Homo sapiens, UniProt P14867+P18507); design: key to Subtype α1: act as partial positive modulators for particular subtype combinations; none: zero efficacy (i.e., antagonism) at other subtypes; settings: cited from earlier work
α1 subunit-containing GABAA receptors, sequence (P14867 28-456): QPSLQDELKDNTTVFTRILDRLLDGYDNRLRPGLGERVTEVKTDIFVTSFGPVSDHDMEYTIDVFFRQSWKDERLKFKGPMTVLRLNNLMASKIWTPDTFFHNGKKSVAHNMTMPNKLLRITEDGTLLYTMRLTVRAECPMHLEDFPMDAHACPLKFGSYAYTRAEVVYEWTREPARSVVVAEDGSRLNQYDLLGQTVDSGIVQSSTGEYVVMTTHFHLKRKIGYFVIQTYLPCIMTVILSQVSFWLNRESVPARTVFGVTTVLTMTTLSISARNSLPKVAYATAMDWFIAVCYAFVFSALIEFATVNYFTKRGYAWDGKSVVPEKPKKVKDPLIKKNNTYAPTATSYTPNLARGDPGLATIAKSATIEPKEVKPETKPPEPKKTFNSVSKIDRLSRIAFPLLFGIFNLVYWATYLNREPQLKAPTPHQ
α1 subunit-containing GABAA receptors, sequence (P18507 40-475): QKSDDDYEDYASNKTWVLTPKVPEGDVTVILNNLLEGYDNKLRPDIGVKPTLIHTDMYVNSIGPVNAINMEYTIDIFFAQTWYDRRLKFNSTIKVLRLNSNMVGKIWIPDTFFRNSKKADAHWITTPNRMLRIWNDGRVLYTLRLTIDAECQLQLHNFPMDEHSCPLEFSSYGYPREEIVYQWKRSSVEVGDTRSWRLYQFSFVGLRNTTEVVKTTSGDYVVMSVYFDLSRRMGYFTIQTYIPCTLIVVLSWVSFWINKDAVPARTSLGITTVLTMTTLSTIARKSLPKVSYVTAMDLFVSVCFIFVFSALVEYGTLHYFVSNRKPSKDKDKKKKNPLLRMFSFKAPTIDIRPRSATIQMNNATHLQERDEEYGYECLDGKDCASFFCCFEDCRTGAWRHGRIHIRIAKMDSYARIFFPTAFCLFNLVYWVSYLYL
α1 subunit-containing GABAA receptors, sequence (P28472 26-473 partner): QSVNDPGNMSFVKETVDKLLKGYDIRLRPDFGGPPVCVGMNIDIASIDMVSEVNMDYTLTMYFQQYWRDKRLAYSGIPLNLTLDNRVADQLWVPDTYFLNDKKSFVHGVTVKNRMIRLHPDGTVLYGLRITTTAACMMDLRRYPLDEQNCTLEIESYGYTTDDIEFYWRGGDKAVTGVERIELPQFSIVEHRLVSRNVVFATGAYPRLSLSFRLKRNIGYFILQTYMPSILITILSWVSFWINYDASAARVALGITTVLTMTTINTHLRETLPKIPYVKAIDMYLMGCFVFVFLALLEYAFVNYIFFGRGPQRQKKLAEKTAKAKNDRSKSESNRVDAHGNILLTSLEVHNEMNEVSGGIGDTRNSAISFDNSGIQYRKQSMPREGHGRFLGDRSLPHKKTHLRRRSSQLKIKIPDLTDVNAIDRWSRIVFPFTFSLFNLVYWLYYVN

[4] = biological target: α2 subunit-containing GABAA receptors (Homo sapiens, UniProt P18507+P47869); design: key: act as partial positive modulators for particular subtype combinations; none: zero efficacy (i.e., antagonism) at other subtypes; settings: cited from earlier work
α2 subunit-containing GABAA receptors, sequence (P47869 29-451): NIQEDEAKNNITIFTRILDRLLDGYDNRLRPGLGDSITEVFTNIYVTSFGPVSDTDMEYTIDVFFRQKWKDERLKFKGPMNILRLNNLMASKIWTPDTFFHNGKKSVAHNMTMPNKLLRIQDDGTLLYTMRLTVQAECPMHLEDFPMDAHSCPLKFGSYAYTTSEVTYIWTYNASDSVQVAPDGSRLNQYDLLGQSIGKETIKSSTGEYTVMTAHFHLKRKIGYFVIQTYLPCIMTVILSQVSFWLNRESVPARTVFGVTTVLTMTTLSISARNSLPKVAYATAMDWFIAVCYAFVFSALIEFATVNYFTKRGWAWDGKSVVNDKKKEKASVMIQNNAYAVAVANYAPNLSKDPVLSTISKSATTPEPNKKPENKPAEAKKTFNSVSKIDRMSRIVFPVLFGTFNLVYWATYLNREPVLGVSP
α2 subunit-containing GABAA receptors, sequence (P18507 40-475): as the sequence (P18507 40-475) above
α2 subunit-containing GABAA receptors, sequence (P28472 26-473 partner): as the sequence (P28472 26-473 partner) above

[5] = biological target: α3 subunit-containing GABAA receptors (Homo sapiens, UniProt P18507+P34903); design: key: act as partial positive modulators for particular subtype combinations; none: zero efficacy (i.e., antagonism) at other subtypes; settings: cited from earlier work
α3 subunit-containing GABAA receptors, sequence (P34903 29-492): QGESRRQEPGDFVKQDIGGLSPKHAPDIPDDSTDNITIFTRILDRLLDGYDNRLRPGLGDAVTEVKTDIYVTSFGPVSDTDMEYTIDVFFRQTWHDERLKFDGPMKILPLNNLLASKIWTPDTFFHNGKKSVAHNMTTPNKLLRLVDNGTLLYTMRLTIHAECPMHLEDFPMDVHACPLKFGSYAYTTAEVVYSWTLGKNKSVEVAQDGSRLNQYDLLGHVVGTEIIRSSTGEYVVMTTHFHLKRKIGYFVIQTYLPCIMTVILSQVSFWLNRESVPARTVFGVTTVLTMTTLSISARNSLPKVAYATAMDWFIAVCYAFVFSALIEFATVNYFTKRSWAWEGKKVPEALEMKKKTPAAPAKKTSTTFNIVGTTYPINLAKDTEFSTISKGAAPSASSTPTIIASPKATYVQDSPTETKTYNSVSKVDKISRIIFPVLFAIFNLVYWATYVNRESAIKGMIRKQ
α3 subunit-containing GABAA receptors, sequence (P18507 40-475): as the sequence (P18507 40-475) above
α3 subunit-containing GABAA receptors, sequence (P28472 26-473 partner): as the sequence (P28472 26-473 partner) above

[6] = biological target: α5 subunit-containing GABAA receptors (Homo sapiens, UniProt P18507+P31644); design: key to Subtype α5: act as partial positive modulators for particular subtype combinations; none: zero efficacy (i.e., antagonism) at other subtypes; settings: cited from earlier work
α5 subunit-containing GABAA receptors, sequence (P31644 32-462): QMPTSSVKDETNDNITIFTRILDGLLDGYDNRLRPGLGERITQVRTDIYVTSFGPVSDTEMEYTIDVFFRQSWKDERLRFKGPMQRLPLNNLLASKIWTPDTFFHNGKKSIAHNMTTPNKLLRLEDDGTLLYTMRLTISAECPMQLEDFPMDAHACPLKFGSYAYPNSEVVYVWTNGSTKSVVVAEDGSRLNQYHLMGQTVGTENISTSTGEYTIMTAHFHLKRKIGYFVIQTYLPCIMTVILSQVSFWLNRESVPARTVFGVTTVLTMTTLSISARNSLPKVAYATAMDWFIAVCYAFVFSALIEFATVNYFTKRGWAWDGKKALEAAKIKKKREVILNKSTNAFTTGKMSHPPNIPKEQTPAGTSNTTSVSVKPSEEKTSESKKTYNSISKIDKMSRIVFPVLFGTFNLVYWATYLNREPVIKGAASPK
α5 subunit-containing GABAA receptors, sequence (P18507 40-475): as the sequence (P18507 40-475) above
α5 subunit-containing GABAA receptors, sequence (P28472 26-473 partner): as the sequence (P28472 26-473 partner) above

[7] = system: CNS benzodiazepine binding sites; settings: 1.5 mg/70 kg oral, PET; cited from earlier work
rodent, squirrel monkey = settings: rodent rotarod and chain-pulling, squirrel monkey lever pressing; cited from earlier work
rhesus monkeys [8] = settings: visual recognition memory and spatial working memory; cited from earlier work

CC(C)(O)c1cnn2c(-c3ccc(F)c(-c4c(F)cccc4C#N)c3)cnc2n1 [TPA023B]
median break point (BP), highest response requirement (rhesus monkeys [1]): 160
effect on midazolam dose-response function (rhesus monkeys [2]; TPA023B 0.01 mg/kg pretreatment): shifted the midazolam dose-response function to the right
reduction of midazolam-maintained responding (rhesus monkeys [2]; TPA023B 0.03 mg/kg i.v. pretreatment, midazolam 0.018 and 0.056 mg/kg/injection): > 50%
midazolam self-administration, percent maximum (rhesus monkeys [2]; all midazolam doses, FIG. 8): below 50%
doses with both anti-conflict effects and blockade of midazolam self-administration (rhesus monkeys [2]; conflict and self-administration data combined, FIG. 8): ≥ 0.03 mg/kg
midazolam self-administration, % of maximum (rhesus monkeys [2]; higher doses of TPA023B (above 0.01 mg/kg), even at higher midazolam doses): < 50%
midazolam self-administration, percent maximum (rhesus monkeys [2]; highest TPA023B dose, FIG. 8): below 25%
effect on self-administration of midazolam (rhesus monkeys [2]; pretreatment with 0.003 mg/kg TPA023B): did not attenuate
any ventilatory parameter (breathing frequency, tidal volume, minute volume) (Sprague-Dawley rats): did not alter; also recorded: no effects
Subtype α1 [3]: none
Subtype α2 [4]: partial
Subtype α3 [5]: partial
Subtype α5 [6]: partial
occupancy of CNS benzodiazepine binding sites [7]: 50-55%
sedation (rodent, squirrel monkey): minimally sedating
accuracy in DMTS and SOSS tasks (rhesus monkeys [8]): did not alter accuracy
